Experimental data published in US10071106B2, “Steroidal nitrones for the treatment and prevention of a cerebral stroke or ischaemia, alzheimer and parkinson disease and amyotrophic lateral sclerosis” (FUNDACIÓN PARA LA INVESTIGACIÓN BIOMÉDICA DEL HOSPITAL …, priority 2013, dated 2018).

Columns and labels:
[1] = system: primary neuronal cultures taken from the cerebral cortex of rats; experiment: Neuroprotection in primary neuronal cultures exposed to OGD 4 h and 24 h reperfusion (MTT cell viability); type: cell-based; conditions: for neuronal viability (versus 100% control): added at beginning of reperfusion, OGD 4 h, R24h
From the text: The neuroprotective power of cholesteronitrones F2 and F3 has been determined in primary neuronal cultures, cultured from 6 to 8 days, taken from the cerebral cortex of rats (Quevedo, C, Salinas, M, Alcázar, A. Initiation factor 2B activity is regulated by protein phosphatase 1, which is activated by the mitogen-activated protein kinase-dependent pathway in insulin-like growth factor 1-stimulated neuronal cells. J. Biol. Chem. 2003, 278, 16579-16586), and subjected to oxygen-glucose deprivation (OGD) (Chioua M, Sucunza D, Soriano E, Hadjipavlou-Litina D, Alcázar A, Ayuso I, Oset-Gasque M J, González M P, Monjas L, Rodríguez-Franco M I, Marco-Contelles J, Samadi A. α-aryl-N-alkyl nitrones, as potential agents for stroke treatment: synthesis, theoretical calculations, antioxidant, anti-inflammatory, neuroprotective, and brain-blood barrier permeability properties. J Med Chem. 2012, 55, 153-168), according to the following protocol:
Cell viability was measured using 3-(4,5-dimethylthiazol-2-yl)-2,5-diphenyl tetrazolium bromide (MTT).
Cholesteronitrones F2 and F3, in a range of concentrations from 0.1 to 100 μM, and from 0.5 to 10 μM, respectively, were added at the beginning of the reperfusion period to evaluate their neuroprotective power, using citicoline, a well-known neuroprotective agent, as a reference compound (Adibhatla, R M, Hatcher, J F, Dempsey, R J. Citicoline: neuroprotective mechanisms in cerebral ischemia. J. Neurochem. 2002, 80, 12-23). Citicoline was tested at variable concentrations, between 1 μM and 1 mM, a neuroprotective effect being found at 10 and 100 μM (87.4 and 88.1%, respectively), the effect of 100 μM being significant compared with the value obtained at R24h (analysis of variance (ANOVA), p<0.0021; and p<0.01, post-Dunnett test].

[2] = system: primary neuronal cultures taken from the cerebral cortex of rats; experiment: Long-term neuroprotection in neuronal cultures exposed to OGD 4 h and reperfusion for 5 d (R5d), MTT; type: cell-based
Protocol: To evaluate the neuroprotective power of cholesteronitrones F2 and F3 against ischaemic damage in cultured neurons and simulate long-term reperfusion conditions, the cultures were exposed to OGD for 4 h, and the cells were then subjected to reperfusion for 5 d (R5d).
Cholesteronitrones F2 and F3 (at concentrations of 1.0 and 5.0 μM) were added at the beginning of the reperfusion period and after 48 h of reperfusion, to thus evaluate their long-term neuroprotective power, again using the reference molecule citicoline, according to the protocol of the MTT (see above).

[3] = system: global ischaemia in adult rats; experiment: Global ischaemia by four-vessel occlusion, apoptosis by TUNEL method after 5 d reperfusion; type: in vivo; conditions: R5d
From the text: (§1) Global ischaemia was induced in adult rats according to the conventional four-vessel occlusion method [(a) Martín de la Vega C, Burda J, Nemethova M, Quevedo C, Alcázar A, Martín M E, Salinas M. Possible mechanisms involved in the down-regulation of translation during transient global ischaemia in the rat brain. Biochem J 2001, 357, 819-826; (b) García-Bonilla L, Cid C, Alcázar A, Burda J, Ayuso I, Salinas M. Regulation proteins of eukaryotic initiation factor 2-alpha subunit (eIF2a) phosphatase, under ischemic reperfusion and tolerance. J Neurochem 2007, 103, 1368-1380; (c) Ayuso M I, Hernández-Jiménez M, Martín M E, Salinas M, Alcázar A. New hierarchical phosphorylation pathway of the translational repressor eIF4E-binding protein 1 (4E-BP1) in ischemia-reperfusion stress. J Biol Chem 2010, 285, 34355-34363].
(§2) Therefore, the two vertebral arteries were completely cauterized, and after 24 h ischaemia is induced by carotid occlusion by means of small clamps for 15 min; the clamps were then removed and reperfusion was performed. After 5 d (R5d), the animals were sacrificed. The animals were treated with cholesteronitrone F2, diluted in 10% ethanol in saline solution as a carrier, administered intraperitoneally from the beginning of the reperfusion period. Ten animals were tested; one of the five animals treated with carrier died 2 d after reperfusion. All the protocols used in the experiments with animals were performed according to the guidelines approved by the Ethics Committee of Hospital Ramón y Cajal (Madrid). In the model of four-vessel occlusion cerebral ischaemia in rats, after a brief period of ischaemia delayed neurodegeneration is produced in the CA1 region of the hippocampus [(a) Kirino T. Delayed neuronal death. Neuropathology 2000, 20, S95-S97; (b) Pulsinelli W A, Brierley J B, Plum F. Temporal profile of neuronal damage in a model of transient forebrain ischaemia. […]

[4] = system: global ischaemia in adult rats; experiment: Global ischaemia by four-vessel occlusion, neuronal death by Fluoro-Jade B after 5 d reperfusion; type: in vivo; conditions: R5d, 0.1 mg/kg intraperitoneally
From the text: as §1, §2

[5] = 1 μM, added at the beginning of reperfusion
[6] = 5 μM, added at the beginning of reperfusion

SMILES: CC(C)CCC[C@@H](C)[C@H]1CC[C@H]2[C@@H]3CCC4=C/C(=[N+](/C)[O-])CC[C@]4(C)[C@H]3CC[C@]12C [cholesteronitrone F3, (Z)—N-((8S,9S,10R,13R,14S,17R)-10,13-dimethyl-17-((R)-6-methylheptan-2-yl)-7,8,9,11,12,13,14,15,16,17-decahydro-1H-cyclopenta[a]phenanthren-3(2H,6H,10H)-ylidene)methanamine oxide]
- Neuroprotection (%) ([1]; 0.5 μM, OGD conditions): <0%
- Neuroprotection (%) ([1]; 1.0 μM, OGD conditions): 18.8 ± 1.1%
- Neuroprotection (%) ([1]; 5.0 μM, OGD conditions): 21.7 ± 1.2%
- Neuroprotection (%) ([1]; 10 μM, OGD conditions): 0.8 ± 0.07%
- significant increase of neuronal viability during reperfusion ([1]; 1 or 5 μM, compared with R24h): not
- neuronal viability in R5d experiment (versus 100% control) [2, 5]: 105.6%
- neuronal viability in R5d experiment (versus 100% control) ([2]; 5 μM, added after 48 h of reperfusion): 97.8%
- neuronal viability in R5d experiment (versus 100% control) [2, 6]: 118.6%

SMILES: C[N+](C)(C)CCOP(=O)(O)OP(=O)([O-])OC[C@H]1O[C@@H](n2ccc(N)nc2=O)[C@H](O)[C@@H]1O [citicoline, reference compound]
- neuronal viability (versus 100% control) ([1]; 10 μM): 87.4%
- Neuroprotection (%) ([1]; 100 μM, OGD conditions): 50.2 ± 1.26%
- neuronal viability (versus 100% control) ([1]; 100 μM): 88.1%
- neuronal viability in R5d experiment (versus 100% control) ([2]; 100 μM, added after 48 h of reperfusion): 74.6%
- neuronal viability in R5d experiment (versus 100% control) ([2]; 100 μM, added at the beginning of reperfusion): 76.0%

SMILES: CC(C)CCC[C@@H](C)[C@H]1CC[C@H]2[C@@H]3CCC4=C/C(=[N+](\C)[O-])CC[C@]4(C)[C@H]3CC[C@]12C [cholesteronitrone F2, (E)-N-((8S,9S,10R,13R,14S,17R)-10,13-dimethyl-17-((R)-6-methylheptan-2-yl)-7,8,9,11,12,13,14,15,16,17-decahydro-1H-cyclopenta[a]phenanthren-3(2H,6H,10H)-ylidene)methanamine oxide]
- neuronal apoptotic death, TUNEL-positive ([3]; CA1 area, carrier 64.1±7.1): 48.5±0.4 nuclei per field
- neuronal apoptotic death, TUNEL-positive ([3]; cerebral cortex, carrier 7.2±3.8): 1±0.5 nuclei per field
- neuronal apoptotic death, TUNEL-positive ([3]; lateral cortex, carrier 13.3±6.2): 4.3±1.4
- Neuroprotection (%) ([1]; 0.1 μM, OGD conditions): 9.6 ± 0.5%
- Neuroprotection (%) ([1]; 0.5 μM, OGD conditions): 49.3 ± 3.6%
- Neuroprotection (%) ([1]; 1.0 μM, OGD conditions): 54.3 ± 1.3 %
- neuronal viability (versus 100% control) ([1]; 1 μM): 89.1%
- neuroprotection compared with citicoline ([1]; 5 μM, OGD conditions): significantly higher neuroprotection than that observed for citicoline
- Neuroprotection (%) ([1]; 5.0 μM, OGD conditions): 80.7 ± 2.7 %
- neuronal viability (versus 100% control) ([1]; 5 μM): 95.5%
- Neuroprotection (%) ([1]; 10 μM, OGD conditions): 47.2 ± 1.4%
- Neuroprotection (%) ([1]; 50 μM, OGD conditions): <0%
- Neuroprotection (%) ([1]; 100 μM, OGD conditions): <0%
- neuronal viability in R5d experiment (versus 100% control) ([2]; 1 μM, added after 48 h of reperfusion): 95.7%
- neuronal viability in R5d experiment (versus 100% control) [2, 5]: 110.6%
- neuronal viability in R5d experiment (versus 100% control) [2, 6]: 118.2%
- neuronal death, Fluoro-Jade B ([4]; CA1 region, saline/carrier 70.4±2.4): 55.1±3.4 cells per field
- neuronal death, Fluoro-Jade B ([4]; cerebral cortex, carrier 6.7±3.5): 0±0.1 cells per field
- neuronal death, Fluoro-Jade B ([4]; lateral cortex, carrier 13.4±3.6): 6.3±2.2
